This note sets out measurements from patent US20170055524A1, “Aqueous Adjuvant Composition For Increasing The Efficacy Of Electrolyte Active Substances” (priority 2014, published 2017).

The test system of series [1] is apple leaf cuticles. Nature of the series: Membrane penetration test, penetration of 2,4-D DMA with antagonistic calcium. The series is classed as in vitro ADME. The conditions noted are these: 2,4-D DMA alone, 5 g/L ai; 177 ppm Ca; 25° C./56% rel. air humidity.
Procedure: (§1) The potential of the C8/10 glucamide, which is independent of the surfactant action, to promote foliar absorption of active agrochemical ingredients was determined in membrane penetration tests with apple or pear leaf cuticles. […] The stomata-free cuticles were first dried under air and then installed into stainless steel diffusion cells. After application to the original upper side of the leaf and evaporation of the test liquid, i.e. of the aqueous preparations of the active ingredients without or with the C8/10-glucamide-containing spray liquids or comparative compositions, the diffusion cells were transferred into thermostatted blocks and charged with aqueous liquid. The water used to make up the aqueous test liquids was local tap water (of known composition). At regular intervals, samples were taken and, irrespective of the test system, the proportion of active ingredient penetrated was determined either by HPLC or scintillation measurement. […] In all other HPLC variants, only an aliquot was taken. During the experiment, the temperature in the system (block, diffusion cells, liquids, etc.) and the air humidity above the spray coating on the cuticle were known exactly and were monitored. […] The analytical determination was effected either by means of HPLC (1290 Infinity, Agilent) or analysis of radioactivity (Tricarb, Perkin Elmer). […]
Series [2] has as its system apple leaf cuticles. Nature of the series: Membrane penetration test, penetration of dicamba (acid). Conditions: dicamba (acid) alone, 1.0 g/L ai; normal tap water (85 ppm Ca); 20° C./60% rel. air humidity. The source says:
The stomata-free cuticles were first dried under air and then installed into stainless steel diffusion cells. […] The water used to make up the aqueous test liquids was local tap water (of known composition). […] In each case, the geometric mean values of the penetration for intact membranes at the mean measurement times are given.

Series [3] has as its system apple leaf cuticles. Nature of the series: Membrane penetration test, penetration of MCPA (potassium salt). Format: in vitro ADME. Conditions: MCPA potassium alone, 1.0 g/L ai in spray liquid; 25° C./56% rel. air humidity.
Procedure: as §1
Series [4] relates to apple leaf cuticles. Nature of the series: Membrane penetration test, penetration of sulcotrione. The series is classed as in vitro ADME. The conditions noted are these: sulcotrione alone, 0.2 g/L ai; 20° C./60% rel. air humidity.
Procedure: as §1

For the molecule `CNC.O=C(O)COc1ccc(Cl)cc1Cl` [2,4-D DMA, 2,4-D], in the series with apple leaf cuticles [1], the “Mean penetration of 2,4-D DMA after 4 h” value was 0.2% and the “Mean penetration of 2,4-D DMA after 1 day” value worked out at 0.3%.

Turning to `COc1c(Cl)ccc(Cl)c1C(=O)O` [Dicamba (acid), dicamba], in the series on apple leaf cuticles [2], the “Mean penetration of dicamba (acid) after 5 h” value stood at 4.4% and the “Mean penetration of dicamba (acid) after 1 day” value turned out to be 12.4%.

As for `Cc1cc(Cl)ccc1OCC(=O)[O-].[K+]` [MCPA potassium, MCPA], in the series on apple leaf cuticles [3], the “Mean penetration of MCPA (potassium salt) after 4 h” value is listed as 1.6% and the “Mean penetration of MCPA (potassium salt) after 1 day” value came to 7.2%.

In the case of `CS(=O)(=O)c1ccc(C(=O)C2C(=O)CCCC2=O)c(Cl)c1` [Sulcotrione, sulcotrione], in the series on apple leaf cuticles [4], the “Mean penetration of sulcotrione after 5 h” value was below 1% and the “Mean penetration of sulcotrione after 1 day” value is below 1%.
